Common to all, as to format: physicochemical
The nature of data set [1]: Glass transition temperature (dynamic mechanical analyzer). To be noted: PVC plastic with 35 parts plasticizer; -40 to 80°C, 3°C/min, 1 Hz. Here is the method:
(§1) The aconitates and tributyl citrate prepared in the above examples and comparative examples were added as plasticizers to PVC resin to obtain PVC plastics. The PVC plastics include 100 parts of PVC resin, 35 parts of plasticizer, 2 parts of oxidized polyethylene wax, and 5 parts of octyltin maleate. The above raw materials were mixed and prepared using the same mixing process to obtain finished PVC products. The performance tests were performed on different plasticizers and the obtained PVC finished products in the above examples and comparative examples. […] Three points were selected for each group of samples, each point was tested once, and a median value was taken. • 2. […] Compatibility: tests were performed using a water value method. Since water molecules are polar, the compatibility between the plasticizer and water can characterize the compatibility between the plasticizer and polar materials (PVC, PLA, and nitrile rubber). When a certain plasticizer has good compatibility with water, it has good compatibility with PVC, and vice versa. In the experiment, 2.5 g of plasticizer and 25 g of acetone were added to a beaker, titrated with a burette filled with deionized water, and agitated while titrating until turbidity appears, and the volume of deionized water consumed was recorded. • 4. Glass transition temperature (Tg): the glass transition temperature was tested using a dynamic mechanical analyzer. Test conditions: nitrogen was taken as the carrier gas, at a test temperature range of -40 to 80°C, a heating rate of 3°C/min, and a frequency of 1 Hz.

Data set [2] in a line: Tensile properties (GB/T 1040-2006): tensile modulus at 100%, elongation at break, elastic modulus. To be noted: PVC plastic with 35 parts plasticizer; 50 mm/min, 25°C. Here is the method:
as §1

Data set [3] is described as follows: Water content (Karl Fischer moisture meter). To be noted: aconitate/citrate products, Table 4. An excerpt: 6. Water content: a Karl Fischer moisture meter is used to test the water content (retained to two decimal places).
Data set [4] is described as follows: Chromaticity (platinum-cobalt colorimetry). To be noted: aconitate/citrate products, Table 4; colour comparison at 25°C. As to the method:
3. Chromaticity: preparation of 500# platinum-cobalt colorimetric standard stock solution: 1.2450 g of potassium chloroplatinate and 1.0000 g of cobalt chloride were weighed, with an accuracy of 0.0002 g, the mixture was dissolved in 100 mL of hydrochloric acid, and then diluted to 1000 mL with distilled water. This solution is just the 500# colorimetric standard comparison solution.
Preparation of colorimetric standards below 500#: different amounts of the 500# stock solution was prepared, and diluted with distilled water to the volume of a colorimetric tube to prepare colorimetric standard solutions of any number. The calculation formula is as follows: V = (N×V1)/500 [formula]
In the formula, V is the volume of the 500# standard stock solution taken to prepare the N# colorimetric standard solution, in mL; V1 is the volume of the colorimetric tube used, in mL; and N is the number of the colorimetric standard solution to be prepared.
Color comparison determination was performed at 25°C.

Data set [5] is described as follows: Acid value (KOH titration). To be noted: aconitate/citrate products, Table 4. Here is the method: The aconitates and citrates prepared in the above examples and comparative examples were tested for acid value, purity, chromaticity, yield, triester conversion rate, and water content. […] The mixture was neutralized with 0.02 mol·L^-1 potassium hydroxide aqueous solution until a faint pink color appears, and the consumed volume Vo was recorded. 1 g of the sample (accurate to 0.01 g) was weighed using a ground-neck conical flask, then one portion of the above neutralized solution was added. After the sample was completely dissolved, the sample was titrated with 0.02 mol·L^-1 potassium hydroxide-ethanol standard titration solution (the titration should be completed within 30 seconds) until a faint pink color appeared and persisted for 5 seconds without fading, which was considered as an end point. The consumed volume V was recorded. […] Chromatographic column: C18 column; injector: 10 µL micro-syringe; solvent: acetonitrile (HPLC grade); acquisition time: 15 min; mobile phase: 80% acetonitrile (HPLC grade) and 20% deionized water; injection volume: 1 µL; wavelength: 230 nm.

Data set [6] is described as follows: Residual amounts of fat-soluble and water-soluble pigments (HPLC). To be noted: aconitate/citrate products, Table 4. As to the method:
7. Residual amounts of fat-soluble pigments and water-soluble pigments: • a high-performance liquid chromatograph (HPLC) was used, and the instrument sensitivity and stability of the detector should comply with the provisions of GB/T 16631-2008. Chromatographic column: C18 column; injector: 10 µL micro-syringe; solvent: acetonitrile (HPLC grade); acquisition time: 15 min; mobile phase: 80% acetonitrile (HPLC grade) and 20% deionized water; injection volume: 1 µL; wavelength: 230 nm.
Test: the instrument was adjusted according to the above provisions. After the baseline was stable, 0.2 µL of the sample was injected using a micro-syringe, and the integrator or chromatographic workstation was started at the same time. A pigment concentration-integral area standard curve was established by testing the integral areas of pigments with different concentrations. When the pigment content was measured, the corresponding pigment integral area was automatically given by the instrument, and the pigment concentration was obtained by comparing with the standard curve. The ratio of the pigment concentration to the sample concentration is the pigment content.

The nature of data set [7]: Hardness (Shore hardness tester, GB/T 531-2008). To be noted: PVC plastic: 100 parts PVC resin, 35 parts plasticizer, 2 parts oxidized polyethylene wax, 5 parts octyltin maleate. Here is the method: as §1, with “The PVC plastics include 100 parts of PVC resin, 35 parts of plasticizer, 2 parts of oxidized polyethylene wax, and 5 parts of octyltin maleate.” left out
Data set [8] is described as follows: Compatibility (water value method). To be noted: 2.5 g plasticizer and 25 g acetone titrated with deionized water until turbidity; Table 5. As to the method:
as §1

The values that follow come from patent publication EP4715056A1, “BIO-BASED TRANS-ACONITATE, PREPARATION METHOD THEREFOR AND USE THEREOF” (Qingdao Institute of Bioenergy and Bioprocess Technology, …, priority 2023, dated 2024).

`CCCCOC(=O)C=C(CC(=O)OCCCC)C(=O)OCCCC` [Example 23, tributyl aconitate] displayed a Tg in data set [1] of 28.4 °C. Moreover, in data set [2], the Elastic modulus worked out at 128.7 MPa, the Elongation at break was determined as 239.4% and the “Tensile modulus at 100%” value came out at 15.6 MPa. For the same compound, in data set [3], the Water content was 0.03%. The compound further displayed a Chromaticity in data set [4] of 60 Pt-Co. Also, in data set [5], the Acid value is on record as 0.05 KOH/g. Besides, in data set [6], the “Residual amounts of fat-soluble pigments” value is recorded as 1356 ppm and the “Residual amounts of water-soluble pigments” value is 842 ppm. The “Hardness/Shore D” value in data set [7] turned out to be 43 Shore D. The same compound had a Compatibility in data set [8] of 13.1 mL.
In data set [1], `CCCCOC(=O)C=C(CC(=O)OCCCC)C(=O)OCCCC` [Example 24, tributyl aconitate] displayed a Tg of 28.6 °C. Further, in data set [2], the Elastic modulus is 131.0 MPa, the Elongation at break stood at 242.7% and the “Tensile modulus at 100%” value is listed as 15.7 MPa. In data set [3], the Water content was found to be 0.02%. Also, the Chromaticity in data set [4] is listed as 60 Pt-Co. Also, the Acid value in data set [5] was determined as 0.05 KOH/g. Further, in data set [6], the “Residual amounts of fat-soluble pigments” value amounted to 1386 ppm and the “Residual amounts of water-soluble pigments” value worked out at 420 ppm. The “Hardness/Shore D” value in data set [7] is listed as 43 Shore D. In data set [8], this compound registered a Compatibility of 13.1 mL.
`CCCCOC(=O)C=C(CC(=O)OCCCC)C(=O)OCCCC` [Example 25, tributyl aconitate]: the Tg in data set [1] was found to be 28.2 °C. In data set [2], the Elastic modulus was found to be 156.4 MPa, the Elongation at break came out at 226.5% and the “Tensile modulus at 100%” value is given as 17.2 MPa. Further, the Water content in data set [3] was 0.03%. In data set [4], this compound registered a Chromaticity of 50 Pt-Co. The Acid value in data set [5] is listed as 0.05 KOH/g. For the same compound, in data set [6], the “Residual amounts of fat-soluble pigments” value came to 865 ppm and the “Residual amounts of water-soluble pigments” value is reported as 454 ppm. Further, the “Hardness/Shore D” value in data set [7] came out at 45 Shore D. The compound also registered a Compatibility in data set [8] of 12.7 mL.
Regarding `CCCCOC(=O)C=C(CC(=O)OCCCC)C(=O)OCCCC` [Example 26, tributyl aconitate], in data set [1], the Tg was found to be 28.8 °C. Also, in data set [2], the Elastic modulus is on record as 178.3 MPa, the Elongation at break was 234.1% and the “Tensile modulus at 100%” value is recorded as 17.5 MPa. In addition, the Water content in data set [3] was determined as 0.04%. The Chromaticity in data set [4] was found to be 70 Pt-Co. The same compound returned an Acid value in data set [5] of 0.05 KOH/g. Also, in data set [6], the “Residual amounts of fat-soluble pigments” value is 2015 ppm and the “Residual amounts of water-soluble pigments” value was 465 ppm. For the same compound, the “Hardness/Shore D” value in data set [7] is recorded as 45 Shore D. This compound returned a Compatibility in data set [8] of 12.2 mL.
For the compound `CCCCOC(=O)C=C(CC(=O)OCCCC)C(=O)OCCCC` [Example 27, tributyl aconitate], in data set [1], the Tg is 28.5 °C. Further, in data set [2], the Elastic modulus was 166.7 MPa, the Elongation at break is recorded as 230.3% and the “Tensile modulus at 100%” value stood at 17.3 MPa. In data set [3], this compound had a Water content of 0.05%. For the same compound, in data set [4], the Chromaticity amounted to 200 Pt-Co. In data set [5], this compound yielded an Acid value of 0.05 KOH/g. Further, in data set [6], the “Residual amounts of fat-soluble pigments” value is on record as 4650 ppm and the “Residual amounts of water-soluble pigments” value was determined as 415 ppm. Moreover, the “Hardness/Shore D” value in data set [7] is 45 Shore D. In data set [8], this compound came in with a Compatibility of 12.4 mL.
`CCCCOC(=O)C=C(CC(=O)OCCCC)C(=O)OCCCC` [Example 28, tributyl aconitate] returned a Tg in data set [1] of 28.6 °C. For the same compound, in data set [2], the Elastic modulus is on record as 88.5 MPa, the Elongation at break is reported as 248.6% and the “Tensile modulus at 100%” value came out at 15.2 MPa. The compound further showed a Water content in data set [3] of 0.04%. The compound further gave a Chromaticity in data set [4] of 40 Pt-Co. In data set [5], this compound showed an Acid value of 0.05 KOH/g. Besides, in data set [6], the “Residual amounts of fat-soluble pigments” value worked out at 1658 ppm and the “Residual amounts of water-soluble pigments” value is listed as 408 ppm. Besides, the “Hardness/Shore D” value in data set [7] was determined as 42 Shore D. The same compound returned a Compatibility in data set [8] of 14.4 mL.
`CCCCOC(=O)C=C(CC(=O)OCCCC)C(=O)OCCCC` [Example 29, tributyl aconitate] gave a Tg in data set [1] of 28.8 °C. In data set [2], the Elastic modulus worked out at 92.6 MPa, the Elongation at break worked out at 251.6% and the “Tensile modulus at 100%” value stood at 15.4 MPa. Moreover, the Water content in data set [3] was determined as 0.03%. In data set [4], this compound gave a Chromaticity of 60 Pt-Co. For the same compound, the Acid value in data set [5] amounted to 0.05 KOH/g. Moreover, in data set [6], the “Residual amounts of fat-soluble pigments” value is recorded as 435 ppm and the “Residual amounts of water-soluble pigments” value was determined as 1302 ppm. In data set [7], the “Hardness/Shore D” value is given as 42 Shore D. Further, the Compatibility in data set [8] was 14.9 mL.
In turn, `CCCCOC(=O)C=C(CC(=O)OCCCC)C(=O)OCCCC` [Example 30, tributyl aconitate] registered a Tg in data set [1] of 28.9 °C. In addition, in data set [2], the Elastic modulus was determined as 134.8 MPa, the Elongation at break stood at 241.7% and the “Tensile modulus at 100%” value was 15.8 MPa. The compound also showed a Water content in data set [3] of 0.04%. The same compound registered a Chromaticity in data set [4] of 65 Pt-Co. This compound also registered an Acid value in data set [5] of 0.05 KOH/g. Also, in data set [6], the “Residual amounts of fat-soluble pigments” value stood at 463 ppm and the “Residual amounts of water-soluble pigments” value is given as 1501 ppm. Further, the “Hardness/Shore D” value in data set [7] was determined as 43 Shore D. The same compound gave a Compatibility in data set [8] of 13.2 mL.
`CCCCOC(=O)C=C(CC(=O)OCCCC)C(=O)OCCCC` [Example 31, tributyl aconitate] yielded a Tg in data set [1] of 29.6 °C. In addition, in data set [2], the Elastic modulus was found to be 157.6 MPa, the Elongation at break was determined as 231.5% and the “Tensile modulus at 100%” value amounted to 17.2 MPa. Also, the Water content in data set [3] amounted to 0.03%. Further, in data set [4], the Chromaticity was determined as 60 Pt-Co. The Acid value in data set [5] is listed as 0.05 KOH/g. For the same compound, in data set [6], the “Residual amounts of fat-soluble pigments” value amounted to 427 ppm and the “Residual amounts of water-soluble pigments” value is 1715 ppm. Moreover, in data set [7], the “Hardness/Shore D” value came out at 45 Shore D. In addition, the Compatibility in data set [8] is listed as 12.5 mL.
